This note sets out measurements from ChEMBL document CHEMBL4842360, “Discovery of a Bicyclic Peptidyl Pan-Ras Inhibitor” (J Med Chem, 2021).

One test deals with GTPase KRas (Homo sapiens, UniProt P01116, G12V). Nature of the test: Inhibition of His6-tagged KRas G12V mutant (unknown origin) expressed in Escherichia coli BL21(DE3) cells assessed as reduction in Ras/GST-fused Raf RBD interaction incubated for 1 hr by HTRF assay.
Chain of GTPase KRas (P01116 whole entry G12V, the tested form may be a part): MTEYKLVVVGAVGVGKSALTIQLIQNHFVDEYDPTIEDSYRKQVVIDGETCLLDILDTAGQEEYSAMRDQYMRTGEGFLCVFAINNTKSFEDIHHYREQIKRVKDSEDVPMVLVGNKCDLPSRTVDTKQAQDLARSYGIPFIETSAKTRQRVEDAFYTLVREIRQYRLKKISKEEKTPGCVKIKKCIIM
Settings: not given; call rule not given here
As for `CC(C)[C@@H](NC(=O)C[C@@H](CC(N)=O)NC(=O)[C@@H]1CNC(=O)c2cc3cc(c2)C(=O)N[C@H](Cc2ccc4ccccc4c2)C(=O)N[C@@H](CO)C(=O)N[C@@H](CCC(N)=O)C(=O)N[C@H](Cc2ccc4ccccc4c2)C(=O)N[C@@H](c2ccccc2)C(=O)N[C@@H](CCCCNC3=O)C(=O)N[C@H](Cc2ccccc2)C(=O)N[C@@H](C)C(=O)N[C@H](CCCNC(=N)N)C(=O)N[C@@H](CCCNC(=N)N)C(=O)N1)C(=O)N[C@H](C)CC(=O)N[C@H](Cc1c[nH]c2ccccc12)C(=O)NCCC(N)=O`, the IC50 result is “Not Active”.

In another test the test system is NCI-H358. Nature of the test: Antiproliferative activity against human NCI-H358 cells incubated for 96 hrs by Celltiter-Glo assay. The test is classed as functional, cell-based. As to conditions: Homo sapiens, NCI-H358, 96 h; read-out: EC50.
On to `C[C@@H](NC(=O)[C@H](Cc1ccccc1)NC(=O)[C@@H](CCCNC(=N)N)NC(=O)[C@H](CCCN)NC(=O)[C@@H]1CNC(=O)c2cc3cc(c2)C(=O)N[C@H](Cc2ccc4ccccc4c2)C(=O)N[C@@H](CO)C(=O)N[C@@H](CC(N)=O)C(=O)N[C@H](Cc2ccc4ccccc4c2)C(=O)N[C@@H](c2ccccc2)C(=O)N[C@@H](CCCCNC3=O)C(=O)N[C@H](Cc2ccccc2)C(=O)N[C@H](CCCN)C(=O)N[C@H](CCCNC(=N)N)C(=O)N[C@@H](CCCNC(=N)N)C(=O)N1)C(N)=O`, for which the EC50 came to 6.4 µM.

As for `CC[C@H]1NC(=O)[C@@H](Cc2ccccc2)NC(=O)[C@@H]2CCCCNC(=O)c3cc(cc(c3)C(=O)N[C@H](Cc3ccc4ccccc4c3)C(=O)N[C@@H](CO)C(=O)N[C@@H](CC(N)=O)C(=O)N[C@H](Cc3ccc4ccccc4c3)C(=O)N[C@@H](c3ccccc3)C(=O)N2)C(=O)NC[C@@H](C(=O)N[C@@H](CCCN)C(=O)N[C@H](CCCNC(=N)N)C(=O)N[C@@H](Cc2ccccc2)C(=O)N[C@H](C)C(N)=O)NC(=O)[C@H](CCCNC(=N)N)NC(=O)[C@@H](CCCNC(=N)N)NC1=O`, the EC50 worked out at 7.2 µM.

Consider `C[C@@H]1NC(=O)[C@@H](Cc2ccccc2)NC(=O)[C@@H]2CCCCNC(=O)c3cc(cc(c3)C(=O)N[C@H](Cc3ccc4ccccc4c3)C(=O)N[C@@H](CO)C(=O)N[C@@H](CC(N)=O)C(=O)N[C@H](Cc3ccc4ccccc4c3)C(=O)N[C@@H](c3ccccc3)C(=O)N2)C(=O)NC[C@@H](C(=O)N[C@@H](CCN)CC(=O)N[C@H](CCCNC(=N)N)C(N)=O)NC(=O)[C@H](CCCNC(=N)N)NC(=O)[C@@H](CCCNC(=N)N)NC1=O`, for which the EC50 was determined as 16 µM.

For `C[C@@H]1NC(=O)[C@@H](Cc2ccccc2)NC(=O)[C@@H]2CCCCNC(=O)c3cc(cc(c3)C(=O)N[C@H](Cc3ccc4ccccc4c3)C(=O)N[C@@H](CO)C(=O)N[C@@H](CC(N)=O)C(=O)N[C@H](Cc3ccc4ccccc4c3)C(=O)N[C@@H](c3ccccc3)C(=O)N2)C(=O)NC[C@@H](C(=O)N[C@@H](CCCN)C(=O)N[C@H](CCCNC(=N)N)C(=O)N[C@H](C(=O)N[C@H](C)C(N)=O)c2ccccc2)NC(=O)[C@H](CCCNC(=N)N)NC(=O)[C@@H](CCCNC(=N)N)NC1=O`, the EC50 is 4.5 µM. Still for that read-out and setting: the same measure for `CC(C)C[C@H]1NC(=O)[C@@H](Cc2ccccc2)NC(=O)[C@@H]2CCCCNC(=O)c3cc(cc(c3)C(=O)N[C@H](Cc3ccc4ccccc4c3)C(=O)N[C@@H](CO)C(=O)N[C@@H](CC(N)=O)C(=O)N[C@H](Cc3ccc4ccccc4c3)C(=O)N[C@@H](c3ccccc3)C(=O)N2)C(=O)NC[C@@H](C(=O)N[C@@H](CCCN)C(=O)N[C@H](CCCNC(=N)N)C(=O)N[C@@H](Cc2ccccc2)C(=O)N[C@H](C)C(N)=O)NC(=O)[C@H](CCCNC(=N)N)NC(=O)[C@@H](CCCNC(=N)N)NC1=O`: 4.8 µM; for `C[C@@H](O)[C@H](NC(=O)[C@H](Cc1ccccc1)NC(=O)[C@@H](CCCNC(=N)N)NC(=O)[C@H](CCCN)NC(=O)[C@@H]1CNC(=O)c2cc3cc(c2)C(=O)N[C@H](Cc2ccc4ccccc4c2)C(=O)N[C@@H](CO)C(=O)N[C@@H](CC(N)=O)C(=O)N[C@H](Cc2ccc4ccccc4c2)C(=O)N[C@@H](c2ccccc2)C(=O)N[C@@H](CCCCNC3=O)C(=O)N[C@H](Cc2ccccc2)C(=O)N[C@H](CCC(N)=O)C(=O)N[C@H](CCCNC(=N)N)C(=O)N[C@@H](CCCNC(=N)N)C(=O)N1)C(N)=O`: 2.6 µM. On the same count and under the same terms, the same measure for `N=C(N)NCCC[C@@H]1NC(=O)[C@@H](CCCNC(=N)N)NC(=O)[C@@H](CCC(N)=O)NC(=O)[C@@H](Cc2ccccc2)NC(=O)[C@@H]2CCCCNC(=O)c3cc(cc(c3)C(=O)N[C@H](Cc3ccc4ccccc4c3)C(=O)N[C@@H](CO)C(=O)N[C@@H](CC(N)=O)C(=O)N[C@H](Cc3ccc4ccccc4c3)C(=O)N[C@@H](c3ccccc3)C(=O)N2)C(=O)NC[C@@H](C(=O)N[C@@H](CCCN)C(=O)N[C@H](CCCNC(=N)N)C(=O)N[C@@H](Cc2ccccc2)C(=O)N[C@H](CO)C(N)=O)NC1=O`: 5.3 µM; for `CC(C)[C@H](NC(=O)[C@H](Cc1ccccc1)NC(=O)[C@@H](CCCNC(=N)N)NC(=O)[C@H](CCCN)NC(=O)[C@@H]1CNC(=O)c2cc3cc(c2)C(=O)N[C@H](Cc2ccc4ccccc4c2)C(=O)N[C@@H](CO)C(=O)N[C@@H](CC(N)=O)C(=O)N[C@H](Cc2ccc4ccccc4c2)C(=O)N[C@@H](c2ccccc2)C(=O)N[C@@H](CCCCNC3=O)C(=O)N[C@H](Cc2ccccc2)C(=O)N[C@H](CCC(N)=O)C(=O)N[C@H](CCCNC(=N)N)C(=O)N[C@@H](CCCNC(=N)N)C(=O)N1)C(N)=O`: 7.1 µM. Still for that read-out and setting: the same measure for `C[C@@H]1NC(=O)[C@@H](Cc2ccccc2)NC(=O)[C@@H]2CCCCNC(=O)c3cc(cc(c3)C(=O)N[C@H](Cc3ccc4ccccc4c3)C(=O)N[C@@H](CO)C(=O)N[C@@H](CC(N)=O)C(=O)N[C@H](Cc3ccc4ccccc4c3)C(=O)N[C@@H](c3ccccc3)C(=O)N2)C(=O)NC[C@@H](C(=O)N[C@@H](CC(N)=O)C(=O)N[C@H](CCCNC(=N)N)C(=O)N[C@@H](Cc2cccc(Cl)c2)C(=O)N[C@H](C)C(N)=O)NC(=O)[C@H](CCCNC(=N)N)NC(=O)[C@@H](CCCNC(=N)N)NC1=O`: 9 µM; for `C[C@H](NC(=O)C[C@H](Cc1ccccc1)NC(=O)[C@@H](CCCNC(=N)N)NC(=O)[C@H](CCCN)NC(=O)[C@@H]1CNC(=O)c2cc3cc(c2)C(=O)N[C@H](Cc2ccc4ccccc4c2)C(=O)N[C@@H](CO)C(=O)N[C@@H](CC(N)=O)C(=O)N[C@H](Cc2ccc4ccccc4c2)C(=O)N[C@@H](c2ccccc2)C(=O)N[C@@H](CCCCNC3=O)C(=O)N[C@H](Cc2ccccc2)C(=O)N[C@H](CCC(N)=O)C(=O)N[C@H](CCCNC(=N)N)C(=O)N[C@@H](CCCNC(=N)N)C(=O)N1)C(N)=O`: 7.4 µM. `C[C@@H](NC(=O)[C@H](Cc1ccccc1)NC(=O)[C@@H](CCCNC(=N)N)NC(=O)[C@H](CCCN)NC(=O)[C@@H]1CNC(=O)c2cc3cc(c2)C(=O)N[C@H](Cc2csc4ccccc24)C(=O)N[C@@H](CO)C(=O)N[C@@H](CC(N)=O)C(=O)N[C@H](Cc2ccc4ccccc4c2)C(=O)N[C@@H](c2ccccc2)C(=O)N[C@@H](CCCCNC3=O)C(=O)N[C@H](Cc2ccccc2)C(=O)N[C@H](CCC(N)=O)C(=O)N[C@H](CCCNC(=N)N)C(=O)N[C@@H](CCCNC(=N)N)C(=O)N1)C(N)=O`: the EC50 worked out at 17 µM. The same measure, in the same setting: the same measure for `C[C@@H]1NC(=O)[C@@H](Cc2ccccc2)NC(=O)[C@@H]2CCCCNC(=O)c3cc(cc(c3)C(=O)N[C@H](Cc3ccc4ccccc4c3)C(=O)N[C@@H](CO)C(=O)N[C@@H](CC(N)=O)C(=O)N[C@H](Cc3ccc4ccccc4c3)C(=O)N[C@@H](c3ccccc3)C(=O)N2)C(=O)NC[C@@H](C(=O)N[C@@H](CCCN)C(=O)N[C@H](CCCNC(=N)N)C(=O)N[C@@H](CCc2ccccc2)C(=O)N[C@H](C)C(N)=O)NC(=O)[C@H](CCCNC(=N)N)NC(=O)[C@@H](CCCNC(=N)N)NC1=O`: 9.2 µM; for `C[C@@H](NC(=O)[C@H](Cc1ccccc1)NC(=O)[C@@H](CCCNC(=N)N)NC(=O)[C@H](CCCN)NC(=O)[C@@H]1CNC(=O)c2cc3cc(c2)C(=O)N[C@H](Cc2ccc4ccccc4c2)C(=O)N[C@@H](CO)C(=O)N[C@@H](CC(N)=O)C(=O)N[C@H](Cc2csc4ccccc24)C(=O)N[C@@H](c2ccccc2)C(=O)N[C@@H](CCCCNC3=O)C(=O)N[C@H](Cc2ccccc2)C(=O)N[C@H](CCC(N)=O)C(=O)N[C@H](CCCNC(=N)N)C(=O)N[C@@H](CCCNC(=N)N)C(=O)N1)C(N)=O`: 5.2 µM. Still for that read-out and setting: the same measure for `C[C@@H]1NC(=O)[C@H](CO)NC(=O)[C@@H](Cc2ccc3ccccc3c2)NC(=O)c2cc3cc(c2)C(=O)NC[C@@H](C(=O)N[C@@H](CCCN)C(=O)N[C@H](CCCNC(=N)N)C(=O)N[C@@H](Cc2ccccc2)C(=O)N[C@H](C)C(N)=O)NC(=O)[C@H](CCCNC(=N)N)NC(=O)[C@@H](CCCNC(=N)N)NC(=O)[C@@H](CCC(N)=O)NC(=O)[C@@H](Cc2ccccc2)NC(=O)[C@H](CCCCNC3=O)NC(=O)[C@H](c2ccccc2)NC(=O)[C@@H](Cc2ccc3ccccc3c2)NC1=O`: 4.9 µM.

The same test, now with this note: nci-h358.
For the molecule `C[C@@H](NC(=O)[C@H](Cc1ccccc1)NC(=O)[C@@H](CCCNC(=N)N)NC(=O)[C@H](CCCN)NC(=O)[C@@H]1CNC(=O)c2cc3cc(c2)C(=O)N[C@H](Cc2ccc4ccccc4c2)C(=O)N[C@@H](CCO)C(=O)N[C@@H](CC(N)=O)C(=O)N[C@H](Cc2ccc4ccccc4c2)C(=O)N[C@@H](c2ccccc2)C(=O)N[C@@H](CCCCNC3=O)C(=O)N[C@H](Cc2ccccc2)C(=O)N[C@H](CCC(N)=O)C(=O)N[C@H](CCCNC(=N)N)C(=O)N[C@@H](CCCNC(=N)N)C(=O)N1)C(N)=O`, the EC50 result was “Not Active”. Still for that read-out and setting: the same measure for `C[C@@H]1NC(=O)[C@@H](Cc2ccccc2)NC(=O)[C@@H]2CCCCNC(=O)c3cc(cc(c3)C(=O)N[C@H](Cc3ccc4ccccc4c3)C(=O)N[C@@H](CO)C(=O)N[C@@H](CC(N)=O)C(=O)N[C@H](Cc3ccc4ccccc4c3)C(=O)N[C@@H](c3ccccc3)C(=O)N2)C(=O)NC[C@@H](C(=O)N[C@@H](CN)C(=O)N[C@H](CCCNC(=N)N)C(=O)N[C@@H](Cc2ccc(F)cc2)C(=O)N[C@H](C)C(N)=O)NC(=O)[C@H](CCCNC(=N)N)NC(=O)[C@@H](CCCNC(=N)N)NC1=O`: “Not Active”; for `C[C@@H]1NC(=O)[C@@H](Cc2ccccc2)NC(=O)[C@@H]2CCCCNC(=O)c3cc(cc(c3)C(=O)N[C@H](Cc3ccc4ccccc4c3)C(=O)N[C@@H](CO)C(=O)N[C@@H](CC(N)=O)C(=O)N[C@H](Cc3ccc4ccccc4c3)C(=O)N[C@@H](c3ccccc3)C(=O)N2)C(=O)NC[C@@H](C(=O)N[C@@H](CCCN)C(=O)N[C@H](CCCNC(=N)N)C(=O)N[C@@H](Cc2c[nH]c3ccccc23)C(=O)N[C@H](C)C(N)=O)NC(=O)[C@H](CCCNC(=N)N)NC(=O)[C@@H](CCCNC(=N)N)NC1=O`: “Not Active”.
